From patent US8466202B2, “Anthracenedione compounds” (Sunten Phytotech Co., Ltd., priority 2006, dated 2013)
Several values for one entry are separate records, joined by “and”; a condition that tells them apart may be missing. Equal entries are not always repeated.

Key:
[1] = Body weight of rats over the 10-day period (Example 3); assay type: in vivo, rat; parameters: Body weight Difference: unit not given here; conditions: Sennosides 3.35 mg/kg/day; for Body weight Difference, Mean / Body weight End Day 10, Mean: group mean; for Body weight Difference, Mean / Body weight Difference: Day 10 minus Day 1; for Body weight Difference / Body weight End Day 10: individual rats
Protocol: The aforementioned STD05 and compounds were studied for the laxative activity. Healthy male S.D. rats (BioLASCO Taiwan Co. Ltd.) were divided into three groups (i.e., Groups 1-3) in this study. In Group I, 6 rats, as negative control, were given no treatment; 6 rats, as positive control, were given 3.35 mg/kg/day Sennosides (Through®, Chung Mei Pharmaceutical Co., Ltd; Active ingredient: Sennosides 20 mg, as sennoside A+B 12 mg, Lot. 012F 006); 6 rats were treated STD05 (8 mg/kg/day); 6 rats were treated with an extract fraction containing aloe-emodin, rhein, and emodin (“ARE”, 8 mg/kg/day); 6 rats were treated with Aloe-emodin (4 mg/kg/day); and 6 rats were treated with Rhein (4 mg/kg/day). In Group II, 6 rats, as negative control, were given no treatment; 6 rats, as positive control, were given 3.35 mg/kg/day Sennosides; 6 rats were treated STD05 (24 mg/kg/day); 6 rats were treated with an extract fraction containing ARE (24 mg/kg/day); 6 rats were treated with Chrysophanol (4 mg/kg/day); and 6 rats were treated with Emodin (4 mg/kg/day). In Group III, 6 rats, as negative control, were given no treatment; 6 rats were treated with Physcoin (4 mg/kg/day); and 6 rats were treated with a mixture of chrysophanol and physcion (8 mg/kg/day, “CP”). The experiments were carried out under controlled temperature, humidity, and lighting. Each rat was fed standard rat food and water ad libitum in housing that provided a 12-hour light/dark cycle. For statistical comparison, all of the rats were divided into six sets according to the body weights. The first part of the experiment studied the effect of the test substances on feces production. During the 10-day period, the body weights of the rats were weighed each day and recorded. The rat's feces was also studied three times in the manner described above during the 10-day period for any unusual observations. During the 10-day period, any rat that appeared dying was euthanized, dissected, and examined for any illness or injury. Any complications or illness were analyzed by H&E stains to determine the cause of death and to allow for dosage reconsiderations for future experiments. Summarized in Table 4 below are the effects of the compounds, mixtures, or extracts on the rat body weights.

healthy male S.D. rats = assay: Feces production in rats over the 10-day period (Example 3); assay type: in vivo, rat; conditions: for increase of the feces amount (wet weight): vs control of the same group; for Pellet count / Water content / Wet Weight: Sennosides 3.35 mg/kg; for increase of the feces amount (wet weight), average: average of Days 1, 5 and 10
Protocol: During this period, the body weights of the rats were weighed each day and recorded. Feces of each rat were studied three times during the period for any unusual observations. Specifically, the amounts of feces were weighed on Days 11, 15, 18, and 21. During observation, each rat was placed in a metabolic cage. Feces were collected every twenty-four hours. The number of collected feces pellets was counted, and the pellets' shapes and colors were evaluated. After weighing the moist feces, they were dried in an oven at 100° C. for twenty-four hours. The water content from the feces was calculated according to the following formula: Water content percentage=[(wet weight−dry weight)/wet weight]×100%. (I) The results are summarized in Table 2 below: The aforementioned STD05 and compounds were studied for the laxative activity. Healthy male S.D. rats (BioLASCO Taiwan Co. Ltd.) were divided into three groups (i.e., Groups 1-3) in this study. In Group I, 6 rats, as negative control, were given no treatment; 6 rats, as positive control, were given 3.35 mg/kg/day Sennosides (Through®, Chung Mei Pharmaceutical Co., Ltd; Active ingredient: Sennosides 20 mg, as sennoside A+B 12 mg, Lot. 012F 006); 6 rats were treated STD05 (8 mg/kg/day); 6 rats were treated with an extract fraction containing aloe-emodin, rhein, and emodin (“ARE”, 8 mg/kg/day); 6 rats were treated with Aloe-emodin (4 mg/kg/day); and 6 rats were treated with Rhein (4 mg/kg/day). In Group II, 6 rats, as negative control, were given no treatment; 6 rats, as positive control, were given 3.35 mg/kg/day Sennosides; 6 rats were treated STD05 (24 mg/kg/day); 6 rats were treated with an extract fraction containing ARE (24 mg/kg/day); 6 rats were treated with Chrysophanol (4 mg/kg/day); and 6 rats were treated with Emodin (4 mg/kg/day). In Group III, 6 rats, as negative control, were given no treatment; 6 rats were treated with Physcoin (4 mg/kg/day); and 6 rats were treated with a mixture of chrysophanol and physcion (8 mg/kg/day, “CP”). The experiments were carried out under controlled temperature, humidity, and lighting. Each rat was fed standard rat food and water ad libitum in housing that provided a 12-hour light/dark cycle. For statistical comparison, all of the rats were divided into six sets according to the body weights. The first part of the experiment studied the effect of the test substances on feces production. During the 10-day period, the body weights of the rats were weighed each day and recorded. The rat's feces was also studied three times in the manner described above during the 10-day period for any unusual observations. During the 10-day period, any rat that appeared dying was euthanized, dissected, and examined for any illness or injury. Any complications or illness were analyzed by H&E stains to determine the cause of death and to allow for dosage reconsiderations for future experiments. Summarized in Table 4 below are the effects of the compounds, mixtures, or extracts on the rat body weights. During the period, feces produced by the rats were studied days 1, 5, and 10 in the same manner described above. […] In the 10-day period, the rats administered with STD05 produced more feces (wet weight) that the rats in the control group by about 32%. In addition, the pellet counts for the rats administered with STD05 were greater than those for the control rats by about 20%. Furthermore, STD05 increased the water content in feces by about 18%. The same experiments were conducted on rats administered with physcion, aloe-emodin, chrysophanol, rhein, emodin, CP, and ARE.

[2] = Group I, STD05 8 mg/kg, ARE 8 mg/kg, Aloe-emodin 4 mg/kg, Rhein 4 mg/kg
[3] = Group I, Day 1, STD05 8 mg/kg, ARE 8 mg/kg, Aloe-emodin 4 mg/kg, Rhein 4 mg/kg
[4] = Group I, Day 5, STD05 8 mg/kg, ARE 8 mg/kg, Aloe-emodin 4 mg/kg, Rhein 4 mg/kg
[5] = Group I, Day 10, STD05 8 mg/kg, ARE 8 mg/kg, Aloe-emodin 4 mg/kg, Rhein 4 mg/kg
[6] = Group II, STD05 24 mg/kg, ARE 24 mg/kg, Chrysophanol 4 mg/kg, Emodin 4 mg/kg
[7] = Group II, Day 1, STD05 24 mg/kg, ARE 24 mg/kg, Chrysophanol 4 mg/kg, Emodin 4 mg/kg
[8] = Group II, Day 5, STD05 24 mg/kg, ARE 24 mg/kg, Chrysophanol 4 mg/kg, Emodin 4 mg/kg
[9] = Group II, Day 10, STD05 24 mg/kg, ARE 24 mg/kg, Chrysophanol 4 mg/kg, Emodin 4 mg/kg

SMILES | Body weight Difference, Mean [1, 2] [g] | Body weight End Day 10, Mean [1, 2] [g] | Body weight Difference [1, 2] | Body weight End Day 10 [1, 2] | increase of the feces amount (wet weight) (healthy male S.D. rats; Day 1) [%] | increase of the feces amount (wet weight) (healthy male S.D. rats; Day 5) [%] | increase of the feces amount (wet weight) (healthy male S.D. rats; Day 10) [%] | Pellet count (healthy male S.D. rats; [3]) | Water content (healthy male S.D. rats; [3]) [%] | Wet Weight (healthy male S.D. rats; [3]) [g] | Pellet count (healthy male S.D. rats; [4]) | Water content (healthy male S.D. rats; [4]) [%] | Wet Weight (healthy male S.D. rats; [4]) [g] | Pellet count (healthy male S.D. rats; [5]) | Water content (healthy male S.D. rats; [5]) [%] | Wet Weight (healthy male S.D. rats; [5]) [g] | increase of the feces amount (wet weight), average (healthy male S.D. rats) [%] | further results
O=C1c2cccc(O)c2C(=O)c2c(O)cc(CO)cc21 [Aloe-emodin] | 58 | 330 | 45 and 50 (2×) and 40 (2×) and 55 | 315 (2×) and 335 and 345 (2×) and 325 | 27 | 9 | 20 | 98 | 42.48 | 17.00 | 104 | 41.98 | 20.21 | 125 | 50.48 | 28.86 | 19 | 
Cc1cc(O)c2c(c1)C(=O)c1cc(O)cc(O)c1C2=O [Emodin] |  |  |  |  | −30 | 12 | 4 |  |  |  |  |  |  |  |  |  | −5 | Body weight Difference, Mean [1, 6]: 32 g; Body weight End Day 10, Mean [1, 6]: 379 g; Body weight Difference [1, 6]: 30 and 35 (3×) and 45 and 10; Body weight End Day 10 ([1]; Group II, STD05 24 mg/kg, ARE 24 mg/kg, Chrysophanol 4 mg/kg, Emodin 4 mg/kg, in g (unit assumed)): 370 and 380 and 405 and 340 and 385 and 395; Pellet count (healthy male S.D. rats; [7]): 90; Water content (healthy male S.D. rats; [7]): 42.38%; Wet Weight (healthy male S.D. rats; [7]): 16.86 g; Pellet count (healthy male S.D. rats; [8]): 112; Water content (healthy male S.D. rats; [8]): 51.00%; Wet Weight (healthy male S.D. rats; [8]): 25.51 g; Pellet count (healthy male S.D. rats; [9]): 106; Water content (healthy male S.D. rats; [9]): 53.64%; Wet Weight (healthy male S.D. rats; [9]): 26.21 g
O=C(O)c1cc(O)c2c(c1)C(=O)c1cccc(O)c1C2=O [Rhein] | 51 | 331 | 55 (4×) and 50 and 35 | 330 (2×) and 340 (2×) and 310 and 335 | 31 | −9 | −1 | 102 | 42.58 | 17.57 | 89 | 44.55 | 16.88 | 119 | 46.53 | 23.52 | 7 | 
